Reference: ChEMBL document CHEMBL1158237, “Jineol, a Cytotoxic Alkaloid from the Centipede Scolopendra subspinipes” (1996)
Converted amounts (≈) assume the structure as drawn. The source made the active and inactive calls. No cut-off for these calls is given here.

Tests used:
A549 = test: Cytotoxicity against human A549 cells by SRB assay; format: functional; details: read-out: ED50 (the source's name)
SK-OV-3 = test: Cytotoxicity against human SKOV3 cells by SRB assay; format: functional; details: read-out: ED50 (the source's name)
SK-MEL-2 = test: Cytotoxicity against human SK-MEL-2 cells by SRB assay; format: functional; details: read-out: ED50 (the source's name)
XF498 = test: Cytotoxicity against human XF498 cells by SRB assay; format: functional; details: read-out: ED50 (the source's name)
HCT-15 = test: Cytotoxicity against human HCT15 cells by SRB assay; format: functional; details: read-out: ED50 (the source's name)
[1] = system: Trichophyton mentagrophytes; test: Antifungal activity against Trichophyton mentagrophytes by agar diffusion assay; format: functional, organism-based

SMILES	EC50 (A549) [µg/mL]	EC50 (SK-OV-3) [µg/mL]	EC50 (SK-MEL-2) [µg/mL]	EC50 (XF498) [µg/mL]	EC50 (HCT-15) [µg/mL]	Activity [1]
COc1cccc2c1C(=O)c1c(O)c3c(c(O)c1C2=O)C[C@@](O)(C(=O)CO)C[C@@H]3O[C@H]1C[C@H](N)[C@H](O)[C@H](C)O1 [DOXORUBICIN]	0.05 (≈ 0.092 µM)	0.11 (≈ 0.202 µM)	0.05 (≈ 0.092 µM)	0.1 (≈ 0.184 µM)	1.8 (≈ 3.31 µM)	–
CC(=O)Oc1cnc2c(OC(C)=O)cccc2c1 [JINEOL ACETATE]	8	14	11	12	8	–
COc1cnc2c(OC)cccc2c1 [JINEOL METHYL ETHER]	38 (≈ 201 µM)	32 (≈ 169 µM)	21 (≈ 111 µM)	29 (≈ 153 µM)	42 (≈ 222 µM)	–
Oc1cnc2c(O)cccc2c1 [JINEOL]	5.8 (≈ 36 µM)	4.5 (≈ 27.9 µM)	5.6 (≈ 34.7 µM)	10 (≈ 62.1 µM)	1.9 (≈ 11.8 µM)	Active
